ChEMBL document CHEMBL3400121, “Design and synthesis of novel 1,2,3-triazole-pyrimidine-urea hybrids as potential anticancer agents” (Bioorg Med Chem Lett, 2015)
Active and inactive are the calls of the source. The rule behind the calls is not given here.

How the values were obtained:
MGC-803 [1] = test: Induction of apoptosis in human MGC803 cells assessed as late apoptotic cells at 4 uM after 12 to 24 hrs using annexin V-FITC/PI double staining by flow cytometry (reference value: 1.2 %); assay type: functional
MGC-803 [2] = test: Induction of apoptosis in human MGC803 cells assessed as formation of apoptotic bodies at 1 to 4 uM after 24 hrs using Hoechst 33258 staining by fluorescence microscopy; assay type: functional, cell-based
MGC-803 [3] = test: Induction of apoptosis in human MGC803 cells assessed as increase in p53 level at 2 to 4 uM after 48 hrs by Western blot analysis; assay type: functional, cell-based
MGC-803 [4] = test: Induction of apoptosis in human MGC803 cells assessed as necrotic cells at 4 uM after 12 to 24 hrs using annexin V-FITC/PI double staining by flow cytometry (reference value: 6.8 %); assay type: functional
MGC-803 [5] = test: Induction of apoptosis in human MGC803 cells assessed as total apoptotic cells at 1 uM after 12 to 24 hrs using annexin V-FITC/PI double staining by flow cytometry (reference value: 2.8 %); assay type: functional
MGC-803 [6] = test: Induction of apoptosis in human MGC803 cells assessed as necrotic cells at 1 uM after 12 to 24 hrs using annexin V-FITC/PI double staining by flow cytometry (reference value: 6.8 %); assay type: functional
MGC-803 [7] = test: Induction of apoptosis in human MGC803 cells after 12 to 24 hrs using annexin V-FITC/PI double staining by flow cytometry; assay type: functional, cell-based
[8] = Anticancer activity against human EC109 cells assessed as inhibition of proliferation after 72 hrs by MTT assay; assay type: functional, cell-based; settings: ECa-109, 72 h
MGC-803 [9] = test: Induction of apoptosis in human MGC803 cells assessed as viable cells at 1 uM after 12 to 24 hrs using annexin V-FITC/PI double staining by flow cytometry (reference value: 90.4 %); assay type: functional; settings: read-out: Activity
MGC-803 [10] = test: Induction of apoptosis in human MGC803 cells assessed as cell rounding at 1 to 4 uM after 24 hrs using Hoechst 33258 staining by fluorescence microscopy; assay type: functional, cell-based
MGC-803 [11] = test: Induction of apoptosis in human MGC803 cells assessed as late apoptotic cells at 1 uM after 12 to 24 hrs using annexin V-FITC/PI double staining by flow cytometry (reference value: 1.2 %); assay type: functional
MGC-803 [12] = test: Induction of apoptosis in human MGC803 cells assessed as early apoptotic cells at 2 uM after 12 to 24 hrs using annexin V-FITC/PI double staining by flow cytometry (reference value: 1.6 %); assay type: functional
MGC-803 [13] = test: Induction of apoptosis in human MGC803 cells assessed as total apoptotic cells at 4 uM after 12 to 24 hrs using annexin V-FITC/PI double staining by flow cytometry (reference value: 2.8 %); assay type: functional
MGC-803 [14] = test: Induction of apoptosis in human MGC803 cells assessed as viable cells at 2 uM after 12 to 24 hrs using annexin V-FITC/PI double staining by flow cytometry (reference value: 90.4 %); assay type: functional; settings: read-out: Activity
MGC-803 [15] = test: Induction of apoptosis in human MGC803 cells assessed as total apoptotic cells at 2 uM after 12 to 24 hrs using annexin V-FITC/PI double staining by flow cytometry (reference value: 2.8 %); assay type: functional
MGC-803 [16] = test: Anticancer activity against human MGC803 cells assessed as inhibition of proliferation after 72 hrs by MTT assay; assay type: functional, cell-based; settings: MGC-803, 72 h
[17] = Anticancer activity against mouse B16F10 cells assessed as inhibition of proliferation after 72 hrs by MTT assay; assay type: functional, cell-based; settings: B16-F10, 72 h
MGC-803 [18] = test: Induction of apoptosis in human MGC803 cells assessed as late apoptotic cells at 2 uM after 12 to 24 hrs using annexin V-FITC/PI double staining by flow cytometry (reference value: 1.2 %); assay type: functional
[19] = Cytotoxicity against human GES-1 cells assessed as inhibition of proliferation after 72 hrs by MTT assay; assay type: cell-based; settings: GES1, 72 h
MGC-803 [20] = test: Induction of apoptosis in human MGC803 cells assessed as decrease in pro-caspase 3 level at 2 to 4 uM after 48 hrs by Western blot analysis; assay type: functional, cell-based
MCF7 = test: Anticancer activity against human MCF7 cells assessed as inhibition of proliferation after 72 hrs by MTT assay; assay type: functional, cell-based; settings: MCF7, 72 h
MGC-803 [21] = test: Induction of apoptosis in human MGC803 cells assessed as chromatin shrinkage at 1 to 4 uM after 24 hrs using Hoechst 33258 staining by fluorescence microscopy; assay type: functional, cell-based
MGC-803 [22] = test: Induction of apoptosis in human MGC803 cells assessed as early apoptotic cells at 4 uM after 12 to 24 hrs using annexin V-FITC/PI double staining by flow cytometry (reference value: 1.6 %); assay type: functional
MGC-803 [23] = test: Induction of apoptosis in human MGC803 cells assessed as early apoptotic cells at 1 uM after 12 to 24 hrs using annexin V-FITC/PI double staining by flow cytometry (reference value: 1.6 %); assay type: functional
MGC-803 [24] = test: Induction of apoptosis in human MGC803 cells assessed as necrotic cells at 2 uM after 12 to 24 hrs using annexin V-FITC/PI double staining by flow cytometry (reference value: 6.8 %); assay type: functional
MGC-803 [25] = test: Induction of apoptosis in human MGC803 cells assessed as viable cells at 4 uM after 12 to 24 hrs using annexin V-FITC/PI double staining by flow cytometry (reference value: 90.4 %); assay type: functional; settings: read-out: Activity

COc1cc(-c2nc(SCc3cn(CC(=O)NC(=O)Nc4ccccn4)nn3)nc(Nc3ccc(C)cc3)c2C#N)cc(OC)c1OC
Activity (MGC-803 [1]): 10.3%
Activity (MGC-803 [2]): Active
Activity (MGC-803 [3]): Active
Activity (MGC-803 [4]): 1.8%
Activity (MGC-803 [5]): 17.2%
Activity (MGC-803 [6]): 2.5%
Activity (MGC-803 [7]): Dose-dependent effect
IC50 [8]: 21.3 µM
viability at 1 µM (MGC-803 [9]): 80.3%
Activity (MGC-803 [10]): Active
Activity (MGC-803 [11]): 4.1%
Activity (MGC-803 [12]): 26.1%
Activity (MGC-803 [13]): 63%
viability at 2 µM (MGC-803 [14]): 65.8%
Activity (MGC-803 [15]): 32.5%
IC50 (MGC-803 [16]): 7.03 µM
IC50 [17]: 0.032 µM
Activity (MGC-803 [18]): 6.4%
IC50 [19]: > 64 µM
Activity (MGC-803 [20]): Active
IC50 (MCF7): 21 µM
Activity (MGC-803 [21]): Active
Activity (MGC-803 [22]): 52.7%
Activity (MGC-803 [23]): 13.1%
Activity (MGC-803 [24]): 1.7%
viability at 4 µM (MGC-803 [25]): 35.2%
